Measurements: patent US20110059076A1, “HUMAN SERUM ALBUMIN LINKERS AND CONJUGATES THEREOF” (priority 2008, published 2011)
Entries after “also recorded” stand apart in the source; their conditions may differ.

Assays:
[1] = test system: AKT phosphorylation in ZR75-30 cells; assay: HRG-induced AKT phosphorylation ELISA in ZR75-30; type: cell-based, human; conditions: ZR75-30, dose titration 24 hours, 5 nM HRG 1β EGF domain 10 minutes
[2] = test system: MALME-3M melanoma cells (ErbB2 and ErbB3 receptors); assay: cell binding by flow cytometry, apparent binding affinity; conditions: MALME-3M cells
Procedure: Cell binding is assessed by flow cytometry and apparent binding affinities are determined for each molecule. Control cells are incubated with secondary antibody alone.

[3] = target: T1, recombinant extracellular domain of ErbB3 (Homo sapiens, UniProt P21860); assay: specificity competition ELISA on ErbB3-coated plates; conditions: half-maximal binding concentration of B2B3-1
T1 construct: Plates are coated with the recombinant extracellular domain of either ErbB2 or ErbB3
Text: (§1) Plates are coated with the recombinant extracellular domain of either ErbB2 or ErbB3.

[4] = test system: MDA-MB-361 (human breast adenocarcinoma) xenograft; assay: MDA-MB-361 xenograft model; type: in vivo, mice; conditions: MDA-MB-361, 30 mg/kg every 3 days
Text: Calu-3 (human lung adenocarcinoma; FIG. 17A), SKOV-3 (human ovarian adenocarcinoma; FIG. 17B), NCI-N87 (human gastric carcinoma; FIG. 17C), ACHN (human kidney adenocarcinoma; FIG. 17D), and MDA-MB-361 (human breast adenocarcinoma; FIG. 17E) xenograft model are shown.

[5] = test system: BT-474-M3 shPTEN xenografts; assay: BT-474-M3 shPTEN xenografts (reduced PTEN activity); type: in vivo, nude mice; conditions: 30 mg/kg B2B3-1 every 3 days or 10 mg/kg trastuzumab every week, i.p.
Procedure: ShRNA technology is applied to knock out the activity of the tumor suppressor gene phosphatase and tensin homolog (PTEN) in BT-474-M3 breast cancer cells. Briefly, cultured BT-474-M3 cells are transfected with shPTEN or shControl RNA by retroviral transfection. Transfected cells with reduced PTEN are selected using FACS and subsequently injected subcutaneously into the right flank of nude mice to establish xenograft tumors. Cells transfected with a control vector are injected into the left flank of the same mouse. […] All injections are done i.p.

[6] = test system: BT-474-M3 xenograft tumors; assay: q7d versus q3d dosing in BT-474-M3 xenografts; type: in vivo, athymic nude mice (nu/nu); conditions: intraperitoneal
Procedure: Mice receive a subcutaneous estrogen-releasing implant in the opposite flank (0.72 mg pellet, 60 day, slow-release, Innovative Research of America, Sarasota, Fla.) 24 h prior to the injection of 20×10^6 human BT-474-M3cells in PBS. […] Tumors are measured twice a week using digital calipers. Tumor volume is calculated using the formula: π/6×(W^2×L), where W is the short diameter and L is the long diameter. […] PBS vehicle is used as a negative control.

[7] = target: T2, recombinant extracellular domain of ErbB2 (Homo sapiens, UniProt P04626); assay: specificity competition ELISA on ErbB2-coated plates; conditions: half-maximal binding concentration of B2B3-1
T2 construct: Plates are coated with the recombinant extracellular domain of either ErbB2 or ErbB3
Text: as §1

[8] = test system: p27^kip1 in BT474-M3 breast tumor xenografts; assay: p27kip1 staining of xenograft tumors; type: in vivo; conditions: 30 mg/kg every 3 days, 4 doses

## B2B3-1: bispecific scFv antibody fusion: anti-ErbB3 scFv H3 and anti-ErbB2 scFv B1D2 joined by a modified human serum albumin (HSA) linker
[1]
  inhibition of HRG induced AKT phosphorylation: inhibits
[2]
  apparent binding affinity KD: significant increase in apparent binding affinity
[3]
  blocking of binding to ErbB3-coated plates by soluble extracellular domains of EGFR, ErbB2, ErbB3 or ErbB4: only soluble ErbB3 extracellular domain blocked; also recorded: binds specifically
[4]
  tumor size reduction: efficacious
[5]
  size of tumors formed by BT-474-M3 cells lacking expression of PTEN: promoted a reduction
[6]
  efficacy of q7d dosing (66, 132, 198 mg/kg) versus 30 mg/kg q3d: equivalent efficacy
[7]
  blocking of binding to ErbB2-coated plates by soluble extracellular domains of EGFR, ErbB2, ErbB3 or ErbB4: only soluble ErbB2 extracellular domain blocked; also recorded: binds specifically
[8]
  nuclear staining for p27^kip1 compared to HSA control tumors: Increased nuclear staining; also recorded: translocation of p27^kip1 to the nucleus
